# Results from patent US11459324B2, “O-glycoprotein-2-acetamido-2-deoxy-3-D-glycopyranosidase inhibitors” (BIOGEN MA INC., priority 2018, dated 2022).
# Biological target: T1, Recombinant full length human OGA enzyme (Homo sapiens, UniProt O60502)
# T1 construct: Recombinant full length human OGA enzyme was purchased from Origene; purchased Origene
# T1 sequence (O60502 1-916): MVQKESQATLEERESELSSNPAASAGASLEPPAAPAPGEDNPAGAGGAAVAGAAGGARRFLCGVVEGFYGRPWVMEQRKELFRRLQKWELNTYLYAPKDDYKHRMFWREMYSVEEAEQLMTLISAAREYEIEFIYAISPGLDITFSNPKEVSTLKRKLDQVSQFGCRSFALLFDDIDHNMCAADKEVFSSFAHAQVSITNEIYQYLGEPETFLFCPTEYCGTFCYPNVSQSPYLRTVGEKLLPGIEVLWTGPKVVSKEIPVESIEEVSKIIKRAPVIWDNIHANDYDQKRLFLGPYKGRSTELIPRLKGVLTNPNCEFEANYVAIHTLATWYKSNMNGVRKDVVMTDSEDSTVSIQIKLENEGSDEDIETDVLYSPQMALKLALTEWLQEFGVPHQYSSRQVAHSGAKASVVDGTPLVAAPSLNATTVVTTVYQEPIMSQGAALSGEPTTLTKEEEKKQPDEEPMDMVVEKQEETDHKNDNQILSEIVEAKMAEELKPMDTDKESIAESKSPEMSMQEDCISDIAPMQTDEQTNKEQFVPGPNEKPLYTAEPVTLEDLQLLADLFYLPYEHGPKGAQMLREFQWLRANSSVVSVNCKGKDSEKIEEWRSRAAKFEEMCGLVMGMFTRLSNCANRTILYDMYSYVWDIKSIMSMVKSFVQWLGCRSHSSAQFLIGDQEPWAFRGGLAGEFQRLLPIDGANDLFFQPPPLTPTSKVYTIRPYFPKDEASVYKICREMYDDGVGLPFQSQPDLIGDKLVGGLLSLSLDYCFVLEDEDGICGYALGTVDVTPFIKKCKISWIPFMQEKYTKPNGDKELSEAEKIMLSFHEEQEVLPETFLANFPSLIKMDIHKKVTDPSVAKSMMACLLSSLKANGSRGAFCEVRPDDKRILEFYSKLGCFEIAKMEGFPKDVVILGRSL
# Assay: OGA Enzyme Inhibition Biochemical Assay
# Conditions: 1 nM OGA, 100 μM 4-MUGlcNAc (Km), pH 6.4, 90 minutes at room temperature, 10-point dose-response from 20 μM
# Method in brief: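 Full-length human OGA at 1 nM with 100 μM 4-MUGlcNAc (Km) in McIlvaine buffer pH 6.4 plus 0.01% BSA, 90 min at room temperature, then glycine pH 10 quench. Fluorescence read at Ex 355/Em 460 nm. 10-point, 4-fold dose-response from 20 μM, 4-parameter variable-slope fit.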
row,IC50 [nM],SMILES
1,2,"CCc1cc2ncnc(CC3CCCN(Cc4cnc(NC(C)=O)s4)C3)c2s1 (stereo not shown) [Example 1-42, N-(5-((3-((6-ethylthieno[3,2-d]pyrimidin-4-yl)methyl)piperidin-1-yl)methyl)thiazol-2-yl)acetamide]"
2,2,"CC(=O)Nc1ncc(CN2CC[C@H](C)[C@@H](Cc3ncc(F)cn3)C2)s1 (single isomer, unassigned) [Example 2-37]"
3,12,"CC(=O)Nc1ncc(CN2CCC(F)(F)C(Cc3ncc(F)cn3)C2)s1 (stereo not shown) [Example 2-14, N-(5-((4,4-difluoro-3-((5-fluoropyrimidin-2-yl)methyl)piperidin-1-yl)methyl)thiazol-2-yl)acetamide]"
4,< 1,"CC(=O)Nc1ncc(CN2C[C@H](Cc3ncc(F)cn3)CC[C@H]2C)s1 (single isomer, unassigned) [Example 2-27]"
5,5,"CC(=O)Nc1ncc(CN2CCCC(Cc3ncc(C)s3)C2)s1 (stereo not shown) [Example 1-35, N-(5-((3-((5-methylthiazol-2-yl)methyl)piperidin-1-yl)methyl)thiazol-2-yl)acetamide]"
6,330,"CC(=O)Nc1ncc(CN2CCC[C@H]([C@H](C)c3ncc(F)cn3)C2)s1 (single isomer, unassigned) [Example 2-32]"
7,4,"CC(=O)Nc1ncc(CN2CCC[C@H]([C@@H](C)c3ncc(F)cn3)C2)s1 (single isomer, unassigned) [Example 2-31]"
8,1100,"CC(=O)Nc1ncc(CN2C[C@@H](Cc3ncc(F)cn3)CC[C@H]2C)s1 (single isomer, unassigned) [Example 2-24]"
9,3,"COc1cc(CC2CCCN(Cc3cnc(NC(C)=O)s3)C2)ccn1 (stereo not shown) [Example 1-7, N-(5-((3-((2-methoxypyridin-4-yl)methyl)piperidin-1-yl)methyl)thiazol-2-yl)acetamide]"
10,1.2,"CCC(=O)Nc1nc(F)c(CN2CCC[C@H](Cc3ncc(F)cn3)C2)s1 [Example 3-17, (R)-N-(4-fluoro-5-((3-((5-fluoropyrimidin-2-yl)methyl)piperidin-1-yl)methyl)thiazol-2-yl)propionamide]"
11,17,"COc1cccc(CC2CCN(Cc3cnc(NC(C)=O)s3)C2)n1 (stereo not shown) [Example 1-18, N-(5-((3-((6-methoxypyridin-2-yl)methyl)pyrrolidin-1-yl)methyl)thiazol-2-yl)acetamide]"
12,3.8,"CC(=O)Nc1ncc(CN2C[C@H](Cc3noc(C)n3)C[C@@H]2C)s1 [Example 4-14, N-(5-(((2S,4S)-2-methyl-4-((5-methyl-1,2,4-oxadiazol-3-yl)methyl)pyrrolidin-1-yl)methyl)thiazol-2-yl)acetamide]"
13,14,"CC(=O)Nc1ncc(CN2CC[C@H](Cc3nccc(C)n3)C2)s1 [Example 3-10, (R)-N-(5-((3-((4-methylpyrimidin-2-yl)methyl)pyrrolidin-1-yl)methyl)thiazol-2-yl)acetamide]"
14,1,"CC(=O)Nc1nc(F)c(CN2CCC(C(C)c3ncc(F)cn3)C2)s1 (stereo not shown) [Example 2-51, N-(4-fluoro-5-((3-(1-(5-fluoropyrimidin-2-yl)ethyl)pyrrolidin-1-yl)methyl)thiazol-2-yl)acetamide]"
15,6.2,"CC(=O)Nc1nc(F)c(CN2CC[C@H](Cc3ncc(F)cn3)C2)s1 [Example 3-26, (R)-N-(4-fluoro-5-((3-((5-fluoropyrimidin-2-yl)methyl)pyrrolidin-1-yl)methyl)thiazol-2-yl)acetamide]"
16,8,"COc1cc(C[C@@H]2CCN(Cc3sc(NC(C)=O)nc3F)C2)ncn1 [Example 3-34, (S)—N-(4-fluoro-5-((3-((6-methoxypyrimidin-4-yl)methyl)pyrrolidin-1-yl)methyl)thiazol-2-yl)acetamide]"

row,IC50 [nM],SMILES
1,11,"CC(=O)Nc1ncc(CN2CC[C@H](Cc3ncc(F)c(C)n3)C2)s1 [Example 3-11, (R)-N-(5-((3-((5-fluoro-4-methylpyrimidin-2-yl)methyl)pyrrolidin-1-yl)methyl)thiazol-2-yl)acetamide]"
2,79,"CC(=O)N(C)c1nc(F)c(CN2CC[C@H](Cc3ncc(F)cn3)C2)s1 [Example 3-37, (R)-N-(4-fluoro-5-((3-((5-fluoropyrimidin-2-yl)methyl)pyrrolidin-1-yl)methyl)thiazol-2-yl)-N-methylacetamide]"
3,30,"CC(=O)Nc1ncc(CN2CCCC(Cc3csc(C)n3)C2)s1 (stereo not shown) [Example 1-36, N-(5-((3-((2-methylthiazol-4-yl)methyl)piperidin-1-yl)methyl)thiazol-2-yl)acetamide]"
4,130,"CC(=O)Nc1ncc(CN2C[C@@H](Cc3ncc(F)cn3)C[C@H]2C(F)(F)F)s1 (single isomer, unassigned) [Example 2-45]"
5,69,"COc1cncc(CC2CCN(Cc3cnc(NC(C)=O)s3)C2)c1 (stereo not shown) [Example 1-20, N-(5-((3-((5-methoxypyridin-3-yl)methyl)pyrrolidin-1-yl)methyl)thiazol-2-yl)acetamide]"
6,20,"COc1ccc(CC2CCCN(Cc3cnc(NC(C)=O)s3)C2)nc1 (stereo not shown) [Example 1-10, N-(5-((3-((5-methoxypyridin-2-yl)methyl)piperidin-1-yl)methyl)thiazol-2-yl)acetamide]"
7,< 1,"COc1cc(C[C@H]2CCCN(Cc3sc(NC(C)=O)nc3F)C2)ccn1 [Example 3-19, (R)-N-(4-fluoro-5-((3-((2-methoxypyridin-4-yl)methyl)piperidin-1-yl)methyl)thiazol-2-yl)acetamide]"
8,< 1,"CC(=O)Nc1ncc(CN2CCC[C@H](Cc3ccnc(C)n3)C2)s1 [Example 3-4, (R)-N-(5-((3-((2-methylpyrimidin-4-yl)methyl)piperidin-1-yl)methyl)thiazol-2-yl)acetamide]"
9,2.2,"CCC(=O)Nc1nc(F)c(CN2CCC[C@H](Cc3cc(OC)ncn3)C2)s1 [Example 3-49, (R)-N-(4-fluoro-5-((3-((6-methoxypyrimidin-4-yl)methyl)piperidin-1-yl)methyl)thiazol-2-yl)propionamide]"
10,62,"CC(=O)Nc1ncc(CN2CCCC(Cc3cccc(F)c3)C2)s1 (stereo not shown) [Example 1-5, N-(5-((3-(3-fluorobenzyl)piperidin-1-yl)methyl)thiazol-2-yl)acetamide]"
11,920,"CC(=O)Nc1ncc(CN2CC(Cc3ncc(F)cn3)C(F)(F)C2)s1 (stereo not shown) [Example 3-3, N-(5-((3,3-difluoro-4-((5-fluoropyrimidin-2-yl)methyl)pyrrolidin-1-yl)methyl)thiazol-2-yl)acetamide]"
12,< 1,"CC(=O)Nc1nc(F)c(CN2CCC[C@H](Cc3cc(C)nc(C)c3)C2)s1 [Example 3-25, (R)-N-(5-((3-((2,6-dimethylpyridin-4-yl)methyl)piperidin-1-yl)methyl)-4-fluorothiazol-2-yl)acetamide]"
13,60,"CC(=O)Nc1ncc(CN2CCCC(Cc3ccc(F)cc3)C2)s1 (stereo not shown) [Example 1-1, N-(5-((3-(4-fluorobenzyl)piperidin-1-yl)methyl)thiazol-2-yl)acetamide]"
14,2,"CC(=O)Nc1ncc(CN2CCC[C@H](Cc3ccc(C(F)F)cn3)C2)s1 [Example 3-5, (R)-N-(5-((3-((5-(difluoromethyl)pyridin-2-yl)methyl)piperidin-1-yl)methyl)thiazol-2-yl)acetamide]"
15,30,"CC(=O)Nc1ncc(CN2CCCC(Cc3cncc(C(F)(F)F)c3)C2)s1 (stereo not shown) [Example 1-30, N-(5-((3-((5-(trifluoromethyl)pyridin-3-yl)methyl)piperidin-1-yl)methyl)thiazol-2-yl)acetamide]"
